Test results taken from patent US20220257758A1, “METHODS OF ADMINISTERING ANTI-SIGLEC-8 ANTIBODIES AND CORTICOSTEROIDS” (priority 2019, published 2022).
“Also recorded” adds a separate entry of the source.

What was measured:
Format in all cases: in vivo, human
[1] = test system: patients with eosinophilic gastritis (EG) and/or eosinophilic gastroenteritis (EGE); assay: Phase 2 study in EG and/or EGE: Total Symptom Score (TSS) from PRO questionnaire
Excerpt: (§1) This study was a randomized, double-blind, placebo-controlled study. […] All patients reported an average weekly score of ≥3 (on a scale from 0-10), recorded for either abdominal pain, diarrhea and/or nausea on a Patient Reported Outcome (PRO) questionnaire during at least 2 out of 3 weeks of PRO collection. A minimum of four questionnaires were completed each qualifying week.
(§2) 65 patients were enrolled in 3 arms. In the first arm, 22 patients received anti-Siglec-8 antibody (non-fucosylated IgG1 antibody HEKA) in the following doses: 0.3 mg/kg for first dose, and 1.0 mg/kg for second, third, and fourth doses (“low dose”). In the second arm, 22 patients received the anti-Siglec-8 antibody in the following doses: 0.3 mg/kg for first dose, 1.0 mg/kg for second dose, and 3.0 mg/kg for the third and fourth doses (“high dose”). Patients in the third arm received placebo. All doses were provided monthly.
(§3) Secondary endpoints included the percentage of responders to treatment and change in symptoms as reported by PRO questionnaire (both comparing week 13-14 vs. baseline), as well as an exploratory assessment of comorbid eosinophilic esophagitis (EoE). Symptoms reported by the PRO questionnaire included abdominal pain, nausea, diarrhea, vomiting, fullness before finishing a meal, loss of appetite, abdominal cramping, and bloating. Each of the 8 symptoms was measured on a scale from 0 to 10 (with 80 total points possible). This questionnaire captured the most significant symptoms of EG/EGE. Treatment responder was defined as >75% reduction in tissue biopsy eosinophil counts and >30% reduction in Total Symptom Score (TSS) from the PRO questionnaire at weeks 13-14. These endpoints were designed to show (1) tissue eosinophil depletion, (2) symptom improvement, and (3) that these effects occurred in the same individuals.

[2] = test system: patients with eosinophilic esophagitis (EoE); assay: Phase 2 study: exploratory assessment of comorbid eosinophilic esophagitis (EoE)
Protocol: as §2
as §3, with “These endpoints were designed to show (1) tissue eosinophil depletion, (2) symptom improvement, and (3) that these effects occurred in the same individuals.” left out

[3] = test system: patients with eosinophilic gastritis (EG) and/or eosinophilic gastroenteritis (EGE); assay: Phase 2 study in EG and/or EGE: treatment responders
Protocol: as §2, §3

[4] = test system: patients with eosinophilic gastritis (EG) and/or eosinophilic gastroenteritis (EGE); assay: Phase 2 study in EG and/or EGE: safety and tolerability
Excerpt: This Example describes results from a Phase 2 examining treatment of patients with eosinophilic gastritis (EG) and/or eosinophilic gastroenteritis (EGE) using a humanized, non-fucosylated IgG1 monoclonal anti-Siglec-8 antibody (HEKA). Specifically, this study evaluated the safety and tolerability of anti-Siglec-8 antibody in patients with EG and/or EGE.
as §2

[5] = test system: patients with eosinophilic gastritis (EG) and/or eosinophilic gastroenteritis (EGE); assay: Phase 2 open-label extension study: infusion-related reactions with corticosteroid premedication; conditions: 58 patients to date; 80 mg oral prednisone 12-24 hours prior to first infusion, plus solumedrol, cetirizine, acetaminophen about 1 hour prior; 1 mg/kg first infusion then 3 mg/kg every 4 weeks
Protocol: Approximately 60 patients are enrolled in this extension study, based on the maximum enrollment from a Phase 2 study. Patients who complete the Phase 2 study have the option to receive anti-Siglec-8 antibody in an open-label fashion.
1 mg/kg anti-Siglec-8 antibody (non-fucosylated IgG1 antibody HEKA) is administered for the first infusion, followed by a dose of 3 mg/kg administered every 4 weeks thereafter. Patients receive up to 8 infusions of anti-Siglec-8 antibody administered every 28(±3) days.
Prior to the first infusion of AK002, 80 mg oral prednisone is given 12-24 hours prior to infusions and solumedrol (100 mg IV), cetirizine (10 mg oral), and acetaminophen (975-1000 mg oral) are given about 1 hour prior to infusion.
In this ongoing extension study, corticosteroid has been administered 12-24 hours prior to each of the first anti-Siglec-8 antibody dose (as described above).

[6] = test system: eosinophils per HPF observed in GI biopsies; assay: Phase 2 study in EG and/or EGE: change in eosinophils per HPF in GI biopsies
Excerpt: as §1
Further, all patients either failed or had disease symptoms not adequately controlled by standard-of-care treatments for EG/EGE symptoms, which could include proton pump inhibitors (PPIs), systemic or topical corticosteroids, and/or diet, among others.
In addition, each patient was confirmed to have EG and/or EGE by esophagogastroduodenoscopy (EGD), as defined by eosinophilia of the gastric mucosa ([…] eosinophils/HPF in 5 HPFs) and/or eosinophilia of the duodenal mucosa (30 eosinophils/HPF in 3 HPFs) from the EGD performed during the screening period, without any other cause for the gastric eosinophilia (e.g., parasitic or other infection or malignancy). For more details, see ClinicalTrials.gov Identifier NCT03496571.
as §2
The primary endpoint was the percentage of change in eosinophils per HPF observed in GI biopsies before and after receiving treatment or placebo. Mean percent change in eosinophil counts was calculated by comparing count at week 14 of treatment versus baseline count.

## anti-Siglec-8 antibody: humanized, non-fucosylated IgG1 monoclonal anti-Siglec-8 antibody (HEKA); VH SEQ ID NO: 6, VL SEQ ID NO: 16; heavy chain SEQ ID NO: 75, light chain SEQ ID NO: 76
[1]; 8 symptoms, baseline to end of treatment
  improvement across symptoms of the PRO questionnaire: improvement across all symptoms measured; also recorded: Improvements were observed across all symptoms
[1]; both treatment groups, baseline to weeks 13-14, p-value 0.0012
  mean reduction in TSS: 54%
[1]; high dose arm, baseline to weeks 13-14
  reduction in TSS: 58%
[1]; low dose arm, baseline to weeks 13-14
  reduction in TSS: 49%
[1]; on day 1 after the first infusion and maintained throughout the study
  improvements in symptoms: statistically significant improvements in symptoms
[2]; patients with EoE
  improvement in dysphagia: substantial improvement in dysphagia
[2]; week 14 of treatment, 13 of 14 EoE patients
  EoE patients showing <5 eosinophils per HPF: 93%
[3]; all treated patients, >75% reduction in tissue eosinophils and >30% reduction in TSS at weeks 13-14, p-value 0.0008
  percentage of responders: 69%
[3]; high dose arm, weeks 13-14
  percentage of responders: 70%
[3]; low dose arm, weeks 13-14
  percentage of responders: 68%
[4]; Phase 2 study
  other significant AEs: no other significant adverse events (AEs) were observed
  tolerability: generally well tolerated
[4]; e.g. flushing, feeling of warmth, headache, nausea, dizziness
  IRRs that were mild to moderate: 95%
[4]; patients receiving antibody
  patients with at least 1 treatment-emergent adverse event (AE): 91%
[4]; was an IRR, patient recovered within 24 hours with no further sequelae
  drug-related serious AE (number): One
[5]
  IRRs observed: no IRRs have been observed
[6]; 37 out of 39 patients receiving antibody
  patients with gastric and duodenal eosinophil counts of <30/HPF: 95%
[6]; both treatment groups, baseline to weeks 13-14, p-value <0.0001
  mean reduction in eosinophil count: 95%
[6]; high dose arm (0.3, 1.0, 3.0, 3.0 mg/kg monthly), baseline to weeks 13-14
  reduction in eosinophil count: 97%
[6]; low dose arm (0.3, 1.0, 1.0, 1.0 mg/kg monthly), baseline to weeks 13-14
  reduction in eosinophil count: 95%
